Like-named read-outs stand apart in the source and are kept apart here.
How the values were obtained:
Type in all cases: biochemical
MMP-2h = MMP-2h (Homo sapiens (Human), UniProt P08253); experiment: Inhibition constant (Ki) on MMP-2h; conditions: human MMP-2
From the text: (§1) The inhibition constant Ki of these compounds has been determined according to the protocol described by Devel et al, 2006, J. Biol. Chem. (7).
(§2) In this table I and also in table II below, “h” corresponds to human. All of the compounds have therefore been evaluated on human MMPs.

MMP-8h = MMP-8h (Homo sapiens (Human), UniProt P22894); experiment: Inhibition constant (Ki) on MMP-8h; conditions: human MMP-8
MMP-13h = MMP-13h (Homo sapiens (Human), UniProt P45452); experiment: Inhibition constant (Ki) on MMP-13h; conditions: human MMP-13
From the text: as §1, §2

MMP-9h = MMP-9h (Homo sapiens (Human), UniProt P14780); experiment: Inhibition constant (Ki) on MMP-9h; conditions: human MMP-9
From the text: as §1, §2

MMP-10h = MMP-10h (Homo sapiens (Human), UniProt P09238); experiment: Inhibition constant (Ki) on MMP-10h; conditions: human MMP-10
MMP-3h = MMP-3h (Homo sapiens (Human), UniProt P08254); experiment: Inhibition constant (Ki) on MMP-3h; conditions: human MMP-3
From the text: as §1, §2

MMP-14h = MMP-14h (Homo sapiens (Human), UniProt P50281); experiment: Inhibition constant (Ki) on MMP-14h; conditions: human MMP-14
From the text: as §1, §2

MMP-12h = MMP-12h (Homo sapiens (Human), UniProt P39900); experiment: Inhibition constant (Ki) on MMP-12h; conditions: human MMP-12
Sequence of MMP-12h (P39900 106-470): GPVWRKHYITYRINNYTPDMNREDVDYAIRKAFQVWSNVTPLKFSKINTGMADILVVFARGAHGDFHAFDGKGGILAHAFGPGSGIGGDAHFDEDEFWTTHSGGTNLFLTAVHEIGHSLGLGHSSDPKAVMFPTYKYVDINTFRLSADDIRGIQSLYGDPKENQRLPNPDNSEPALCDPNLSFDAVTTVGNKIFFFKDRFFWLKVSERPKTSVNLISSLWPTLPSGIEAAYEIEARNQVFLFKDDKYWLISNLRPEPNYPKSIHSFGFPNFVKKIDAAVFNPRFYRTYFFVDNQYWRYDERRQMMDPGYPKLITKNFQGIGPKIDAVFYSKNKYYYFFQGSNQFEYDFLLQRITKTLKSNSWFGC

Sequence of MMP-2h (P08253 110-660): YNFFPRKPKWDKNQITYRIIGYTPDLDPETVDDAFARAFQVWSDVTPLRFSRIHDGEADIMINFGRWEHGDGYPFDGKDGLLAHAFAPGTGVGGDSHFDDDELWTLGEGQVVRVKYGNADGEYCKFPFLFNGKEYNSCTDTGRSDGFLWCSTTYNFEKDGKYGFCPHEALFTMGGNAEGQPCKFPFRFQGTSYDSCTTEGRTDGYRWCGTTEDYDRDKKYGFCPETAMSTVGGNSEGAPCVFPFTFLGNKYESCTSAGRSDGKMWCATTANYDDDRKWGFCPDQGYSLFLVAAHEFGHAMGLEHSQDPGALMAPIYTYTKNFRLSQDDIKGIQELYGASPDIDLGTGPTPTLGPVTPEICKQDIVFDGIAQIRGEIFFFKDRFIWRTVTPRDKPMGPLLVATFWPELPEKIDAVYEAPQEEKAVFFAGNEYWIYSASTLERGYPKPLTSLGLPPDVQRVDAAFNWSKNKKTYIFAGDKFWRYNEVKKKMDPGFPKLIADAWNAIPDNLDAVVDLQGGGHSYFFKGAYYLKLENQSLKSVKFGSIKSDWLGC
Sequence of MMP-10h (P09238 99-476): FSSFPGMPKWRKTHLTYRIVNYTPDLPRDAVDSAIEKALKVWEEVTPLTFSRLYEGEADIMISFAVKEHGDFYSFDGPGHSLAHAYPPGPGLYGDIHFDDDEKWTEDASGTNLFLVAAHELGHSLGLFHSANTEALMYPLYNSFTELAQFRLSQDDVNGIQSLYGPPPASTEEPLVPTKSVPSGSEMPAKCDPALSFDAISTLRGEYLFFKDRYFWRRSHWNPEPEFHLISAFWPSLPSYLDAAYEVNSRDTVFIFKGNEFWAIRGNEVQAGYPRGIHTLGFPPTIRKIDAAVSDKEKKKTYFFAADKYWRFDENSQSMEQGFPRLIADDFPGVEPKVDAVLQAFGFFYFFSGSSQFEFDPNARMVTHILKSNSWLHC
Sequence of MMP-3h (P08254 100-477): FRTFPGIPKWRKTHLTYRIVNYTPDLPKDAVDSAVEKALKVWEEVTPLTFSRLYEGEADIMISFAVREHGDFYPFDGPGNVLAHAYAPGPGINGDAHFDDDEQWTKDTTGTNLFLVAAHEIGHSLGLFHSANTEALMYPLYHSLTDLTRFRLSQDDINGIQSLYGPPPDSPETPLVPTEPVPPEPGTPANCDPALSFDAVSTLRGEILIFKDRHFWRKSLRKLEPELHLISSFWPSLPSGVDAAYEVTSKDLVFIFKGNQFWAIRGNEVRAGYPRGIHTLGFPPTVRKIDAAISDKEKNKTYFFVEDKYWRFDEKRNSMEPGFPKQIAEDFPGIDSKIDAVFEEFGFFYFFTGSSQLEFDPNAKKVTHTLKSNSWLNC
Sequence of MMP-9h (P14780 94-707): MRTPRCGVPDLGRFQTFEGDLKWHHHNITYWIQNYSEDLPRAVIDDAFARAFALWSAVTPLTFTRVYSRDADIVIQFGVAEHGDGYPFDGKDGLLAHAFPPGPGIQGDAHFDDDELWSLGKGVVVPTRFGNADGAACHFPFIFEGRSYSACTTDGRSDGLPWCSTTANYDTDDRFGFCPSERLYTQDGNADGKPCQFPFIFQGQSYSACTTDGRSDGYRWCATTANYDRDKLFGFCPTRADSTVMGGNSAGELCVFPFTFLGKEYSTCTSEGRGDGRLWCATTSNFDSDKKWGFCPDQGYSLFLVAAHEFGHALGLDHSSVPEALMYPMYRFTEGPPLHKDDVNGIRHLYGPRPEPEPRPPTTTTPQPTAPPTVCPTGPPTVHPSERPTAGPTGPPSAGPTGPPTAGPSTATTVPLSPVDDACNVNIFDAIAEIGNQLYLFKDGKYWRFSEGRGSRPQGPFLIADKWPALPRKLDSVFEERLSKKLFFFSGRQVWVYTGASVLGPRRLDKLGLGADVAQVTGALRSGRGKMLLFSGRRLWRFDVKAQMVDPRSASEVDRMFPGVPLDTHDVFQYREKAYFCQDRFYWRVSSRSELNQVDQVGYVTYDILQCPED
Sequence of MMP-8h (P22894 101-467): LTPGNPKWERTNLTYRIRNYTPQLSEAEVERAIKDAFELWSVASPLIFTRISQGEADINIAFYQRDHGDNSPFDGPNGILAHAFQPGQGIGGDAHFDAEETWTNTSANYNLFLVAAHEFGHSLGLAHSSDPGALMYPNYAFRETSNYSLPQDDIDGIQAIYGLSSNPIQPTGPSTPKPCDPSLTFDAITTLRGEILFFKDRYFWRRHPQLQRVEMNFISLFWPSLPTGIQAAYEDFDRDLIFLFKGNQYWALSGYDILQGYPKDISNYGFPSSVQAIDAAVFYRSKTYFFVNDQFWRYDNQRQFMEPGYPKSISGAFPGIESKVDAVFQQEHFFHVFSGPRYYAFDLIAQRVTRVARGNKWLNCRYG

NC(=O)[C@H](CCC(=O)O)NC(=O)[C@H](CCC(=O)O)NC(=O)CCc1ccc(Oc2ccccc2)cc1 [Compound 28, (S)-5-amino-4-((S)-4-carboxy-2-(3-(4-phenoxyphenyl)propanamido)butanamido)-5-oxopentanoic acid]
Ki (MMP-2h; read-out: Ki MMP-2h): > 1000 nM | Ki (MMP-8h; read-out: Ki MMP-8h): > 1000 nM | Ki (MMP-13h; read-out: Ki MMP-13h): 309 nM | Ki (MMP-9h; read-out: Ki MMP-9h): > 10000 nM | Ki (MMP-10h; read-out: Ki MMP-10h): > 1000 nM | Ki (MMP-3h; read-out: Ki MMP-3h): > 5000 nM | Ki (MMP-14h; read-out: Ki MMP-14h): > 1000 nM | Ki (MMP-12h; read-out: Ki MMP-12h): 856 nM

Cn1ccc(-c2ccc(CCC(=O)N[C@@H](CCC(=O)O)C(=O)N[C@@H](CCC(=O)O)C(N)=O)cc2)n1 [Compound 33, (S)-5-amino-4-((S)-4-carboxy-2-(3-(4-(1-methyl-1H-pyrazol-3-yl)phenyl)propanamido)butanamido)-5-oxopentanoic acid]
Ki (MMP-2h; read-out: Ki MMP-2h): > 1000 nM | Ki (MMP-8h; read-out: Ki MMP-8h): > 1000 nM | Ki (MMP-13h; read-out: Ki MMP-13h): 518 nM | Ki (MMP-9h; read-out: Ki MMP-9h): > 1000 nM | Ki (MMP-10h; read-out: Ki MMP-10h): > 10000 nM | Ki (MMP-3h; read-out: Ki MMP-3h): > 10000 nM | Ki (MMP-14h; read-out: Ki MMP-14h): > 1000 nM | Ki (MMP-12h; read-out: Ki MMP-12h): 797 nM

C[C@H](NC(=O)CCc1ccc(-c2ccc(-c3ccccc3)cc2)cc1)C(=O)N[C@@H](CCC(=O)O)C(N)=O [Compound 76, (S)-5-amino-4-((S)-2-(3-(4′-phenylbiphenyl-4-yl)propanamido)propanamido)-5-oxopentanoic acid]
Ki (MMP-2h; read-out: Ki MMP-2h): 854 nM | Ki (MMP-8h; read-out: Ki MMP-8h): > 1000 nM | Ki (MMP-13h; read-out: Ki MMP-13h): 427 nM | Ki (MMP-9h; read-out: Ki MMP-9h): > 5000 nM | Ki (MMP-10h; read-out: Ki MMP-10h): > 10000 nM | Ki (MMP-3h; read-out: Ki MMP-3h): 142 nM | Ki (MMP-14h; read-out: Ki MMP-14h): > 5000 nM | Ki (MMP-12h; read-out: Ki MMP-12h): 251 nM

NC(=O)CC[C@H](NC(=O)CCc1cc(-c2ccc(-c3ccccc3)cc2)no1)C(=O)N[C@@H](CCC(=O)O)C(N)=O [Compound 20, (S)-5-amino-4-((S)-5-amino-2-(3-(3-(biphenyl-4-yl)isoxazol-5-yl)propanamido)-5-oxopentanamido)-5-oxopentanoic acid]
Ki (MMP-2h; read-out: Ki MMP-2h): 834 nM | Ki (MMP-8h; read-out: Ki MMP-8h): > 1000 nM | Ki (MMP-13h; read-out: Ki MMP-13h): 234 nM | Ki (MMP-9h; read-out: Ki MMP-9h): > 1000 nM | Ki (MMP-10h; read-out: Ki MMP-10h): > 5000 nM | Ki (MMP-3h; read-out: Ki MMP-3h): > 1000 nM | Ki (MMP-14h; read-out: Ki MMP-14h): > 10000 nM | Ki (MMP-12h; read-out: Ki MMP-12h): 412 nM

NC(=O)[C@@H](CCC(=O)O)NC(=O)[C@H](CCC(=O)O)NC(=O)CCc1cc(-c2ccc(-c3cccc(Cl)c3)cc2)no1 [Compound 5, (R)-5-amino-4-((S)-4-carboxy-2-(3-(3-(3′-chlorobiphenyl-4-yl)isoxazol-5-yl)propanamido)butanamido)-5-oxopentanoic acid]
Ki (MMP-2h; read-out: Ki MMP-2h): 112 nM | Ki (MMP-8h; read-out: Ki MMP-8h): 552 nM | Ki (MMP-13h; read-out: Ki MMP-13h): 53 nM | Ki (MMP-9h; read-out: Ki MMP-9h): > 1000 nM | Ki (MMP-10h; read-out: Ki MMP-10h): 44 nM | Ki (MMP-3h; read-out: Ki MMP-3h): 240 nM | Ki (MMP-14h; read-out: Ki MMP-14h): > 1000 nM | Ki (MMP-12h; read-out: Ki MMP-12h): 8.9 nM

O=C(O)CC[C@H](NC(=O)CCc1ccc(-c2cccs2)cc1)C(=O)N1CCC[C@@H](CC(=O)O)C1 [Compound 89, (S)-5-((S)-3-(carboxymethyl)piperidin-1-yl)-5-oxo-4-(3-(4-(thiophen-2-yl)phenyl)propanamido)pentanoic acid]
Ki (MMP-2h; read-out: Ki MMP-2h): 484 nM | Ki (MMP-8h; read-out: Ki MMP-8h): 94 nM | Ki (MMP-13h; read-out: Ki MMP-13h): > 1000 nM | Ki (MMP-9h; read-out: Ki MMP-9h): > 1000 nM | Ki (MMP-10h; read-out: Ki MMP-10h): > 5000 nM | Ki (MMP-3h; read-out: Ki MMP-3h): > 100000 nM | Ki (MMP-14h; read-out: Ki MMP-14h): > 1000 nM | Ki (MMP-12h; read-out: Ki MMP-12h): 124 nM

NC(=O)[C@H](CCC(=O)O)NC(=O)[C@@H](CCC(=O)O)NC(=O)CCc1cc(-c2ccc(-c3cccc(Cl)c3)cc2)no1 [Compound 6, (S)-5-amino-4-((R)-4-carboxy-2-(3-(3-(3′-chlorobiphenyl-4-yl)isoxazol-5-yl)propanamido)butanamido)-5-oxopentanoic acid]
Ki (MMP-2h; read-out: Ki MMP-2h): 403 nM | Ki (MMP-8h; read-out: Ki MMP-8h): > 5000 nM | Ki (MMP-13h; read-out: Ki MMP-13h): 235 nM | Ki (MMP-9h; read-out: Ki MMP-9h): > 5000 nM | Ki (MMP-10h; read-out: Ki MMP-10h): 489 nM | Ki (MMP-3h; read-out: Ki MMP-3h): > 1000 nM | Ki (MMP-14h; read-out: Ki MMP-14h): > 10000 nM | Ki (MMP-12h; read-out: Ki MMP-12h): 401 nM

NC(=O)[C@H](CC(=O)O)NC(=O)[C@H](CCC(=O)O)NC(=O)CCc1ccc(-c2ccc(-c3ccccc3)cc2)cc1 [Compound 64, (S)-5-((S)-1-amino-3-carboxy-1-oxopropan-2-ylamino)-4-(3-(4′-phenylbiphenyl-4-yl)propanamido)-5-oxopentanoic acid]
Ki (MMP-2h; read-out: Ki MMP-2h): 55 nM | Ki (MMP-8h; read-out: Ki MMP-8h): 287 nM | Ki (MMP-13h; read-out: Ki MMP-13h): 23 nM | Ki (MMP-9h; read-out: Ki MMP-9h): > 1000 nM | Ki (MMP-10h; read-out: Ki MMP-10h): 35 nM | Ki (MMP-3h; read-out: Ki MMP-3h): 168 nM | Ki (MMP-14h; read-out: Ki MMP-14h): > 5000 nM | Ki (MMP-12h; read-out: Ki MMP-12h): 3.3 nM

NC(=O)[C@H](CCC(=O)O)NC(=O)[C@H](CCCC(=O)O)NC(=O)CCc1ccc(-c2cc(-c3ccccc3)cs2)cc1 [Compound 102, (S)-6-((S)-1-amino-4-carboxy-1-oxobutan-2-ylamino)-6-oxo-5-(3-(4-(4-phenylthiophen-2-yl)phenyl)propanamido)hexanoic acid]
Ki (MMP-2h): > 1000 nM | Ki (MMP-8h): > 5000 nM | Ki (MMP-13h): 635 nM | Ki (MMP-9h): > 5000 nM | Ki (MMP-10h): > 5000 nM | Ki (MMP-3h): > 10000 nM | Ki (MMP-14h): > 10000 nM | Ki (MMP-12h): 56 nM

NC(=O)[C@H](CCC(=O)O)NC(=O)[C@H](CCC(=O)O)NC(=O)CCc1ccc(-c2cccc([N+](=O)[O-])c2)cc1 [Compound 55, (S)-5-amino-4-((S)-4-carboxy-2-(3-(3′-nitrobiphenyl-4-yl)propanamido)butanamido)-5-oxopentanoic acid]
Ki (MMP-2h): > 1000 nM | Ki (MMP-8h): > 1000 nM | Ki (MMP-13h): 436 nM | Ki (MMP-9h): 685 nM | Ki (MMP-10h): > 1000 nM | Ki (MMP-3h): 878 nM | Ki (MMP-14h): > 5000 nM | Ki (MMP-12h): 73 nM

NC(=O)[C@H](CCC(=O)O)NC(=O)[C@H](CCC(=O)O)NC(=O)CCc1ccc(-c2csnn2)cc1 [Compound 35, (S)-4-(3-(4-(1,2,3-thiadiazol-4-yl)phenyl)propanamido)-5-((S)-1-amino-4-carboxy-1-oxobutan-2-ylamino)-5-oxopentanoic acid]
Ki (MMP-2h): 442 nM | Ki (MMP-8h): 231 nM | Ki (MMP-13h): 212 nM | Ki (MMP-9h): 199 nM | Ki (MMP-10h): 679 nM | Ki (MMP-3h): 281 nM | Ki (MMP-14h): 438 nM | Ki (MMP-12h): 158 nM

O=C(O)CC[C@H](NC(=O)CCc1ccc(-c2ccc(-c3ccccc3)cc2)cc1)C(=O)N1CCC[C@@H](CC(=O)O)C1 [Compound 70, (S)-5-((S)-3-(carboxymethyl)piperidin-1-yl)-4-(3-(4′-phenylbiphenyl-4-yl)propanamido)-5-oxopentanoic acid]
Ki (MMP-2h; read-out: Ki MMP-2h): 12 nM | Ki (MMP-8h; read-out: Ki MMP-8h): 105 nM | Ki (MMP-13h; read-out: Ki MMP-13h): 17 nM | Ki (MMP-9h; read-out: Ki MMP-9h): > 5000 nM | Ki (MMP-10h; read-out: Ki MMP-10h): 421 nM | Ki (MMP-3h; read-out: Ki MMP-3h): 231 nM | Ki (MMP-14h; read-out: Ki MMP-14h): > 1000 nM | Ki (MMP-12h; read-out: Ki MMP-12h): 4.7 nM

NC(=O)[C@H](CC(=O)O)NC(=O)[C@H](CCC(=O)O)NC(=O)CCc1cc(-c2ccc(-c3ccccc3)cc2)no1 [Compound 18, (S)-5-((S)-1-amino-3-carboxy-1-oxopropan-2-ylamino)-4-(3-(3-(biphenyl-4-yl)isoxazol-5-yl)propanamido)-5-oxopentanoic acid]
Ki (MMP-2h): 93 nM | Ki (MMP-8h): 832 nM | Ki (MMP-13h): 30 nM | Ki (MMP-9h): > 1000 nM | Ki (MMP-10h): 196 nM | Ki (MMP-3h): 440 nM | Ki (MMP-14h): > 1000 nM | Ki (MMP-12h): 8 nM

C[C@H](NC(=O)[C@H](CCC(=O)O)NC(=O)CCc1ccc(-c2ccccc2)cc1)C(N)=O [Compound 47, (S)-5-((S)-1-amino-1-oxopropan-2-ylamino)-4-(3-(biphenyl-4-yl)propanamido)-5-oxopentanoic acid]
Ki (MMP-2h; read-out: Ki MMP-2h): > 1000 nM | Ki (MMP-8h; read-out: Ki MMP-8h): 311 nM | Ki (MMP-13h; read-out: Ki MMP-13h): > 1000 nM | Ki (MMP-9h; read-out: Ki MMP-9h): > 1000 nM | Ki (MMP-10h; read-out: Ki MMP-10h): > 1000 nM | Ki (MMP-3h; read-out: Ki MMP-3h): > 10000 nM | Ki (MMP-14h; read-out: Ki MMP-14h): > 5000 nM | Ki (MMP-12h; read-out: Ki MMP-12h): 58 nM

O=C(O)CC[C@H](NC(=O)CCc1ccc(-c2ccccc2)cc1)C(=O)Nc1cccc(CC(=O)O)c1 [Compound 52, (S)-4-(3-(biphenyl-4-yl)propanamido)-5-(3-(carboxymethyl)phenylamino)-5-oxopentanoic acid]
Ki (MMP-2h; read-out: Ki MMP-2h): 546 nM | Ki (MMP-8h; read-out: Ki MMP-8h): 63 nM | Ki (MMP-13h; read-out: Ki MMP-13h): > 1000 nM | Ki (MMP-9h; read-out: Ki MMP-9h): > 1000 nM | Ki (MMP-10h; read-out: Ki MMP-10h): 433 nM | Ki (MMP-3h; read-out: Ki MMP-3h): > 5000 nM | Ki (MMP-14h; read-out: Ki MMP-14h): > 1000 nM | Ki (MMP-12h; read-out: Ki MMP-12h): 12.7 nM

Reference: patent US8691753B2 (priority 2009, dated 2014)
